# Square brackets hold non-standard residues; d marks the D form. Peptide text beside a SMILES is read from it. NMeF = CN[C@@H](Cc1ccccc1)C(=O)O
# Assays:
# [1] = tested on: formalin-induced pain mice; assay: Formalin pain test; format: in vivo, mouse
# Description: The mice were placed in a transparent organic glass box (20×20×30 cm) to accommodate the environment for 10-15 min; a mirror tilted at 30 degrees was placed underneath to facilitate observation of the mouse's foot reaction. After adaptation, the mice were administered in lateral ventricle, intrathecally or intraperitoneally. 5 minutes after administration, 20 μL of a 5% formalin solution was subcutaneously injected into the toes of the right hind paw of the mice, and quickly placed back in the observation box. Timing was started, and the time when the mouse was licking, biting and shaking the injected paw during 0-5 minutes and 15-30 minutes after the injection of the formalin solution were recorded respectively.
# The experimental data was expressed by MPE (maximum possible effect), MPE (%)=100×[(licking paw time in saline group−licking paw time in drug group)/licking paw time in saline group]. The relevant MPE data were expressed as mean±standard error Means±S.E.M.), the data for differences between groups treated with different drug concentrations were analyzed by one-way ANOVA (Bonferroni test in one-way ANOVA) for statistics and analysis, ***P<0.001 represents that there was a significant difference between the MPE value of the drug-treated group and that of the saline group.
# [2] = tested on: neuralgia induced by chronic compression of the sciatic nerve in mice; assay: CCI neuralgia model (thermal and mechanical pain); format: in vivo, mouse
# Description: The chronic compression model of the sciatic nerve (CCI) was mainly used for the mouse neuralgia. The detection method uses thermal tingling instrument and electronic Von Frey tenderness instrument to simultaneously detect thermal pain and mechanical pain. Firstly, the basic pain threshold of thermal pain and mechanical pain in normal mice were determined respectively. The mice were then anesthetized with sodium pentobarbital (i.p., 80 mg/kg mouse body weight) and the mice were fixed in the prone position. The right sciatic nerve was exposed and 3 mild ligation rings were made around the sciatic nerve using a 4-0 chromic catgut, 1 mm intervals. The ligation intensity is preferably a slight tremor in the right hind leg. On the 10th day after surgery, the thermal pain sensitivity value of the right hind paw of the mouse was measured, and then compound 9 was intrathecally or subcutaneously administered, and the thermal pain threshold at different time points after administration were recorded. On the 11th day after surgery, the mechanical pain sensitivity value of the right hind paw of the mouse was measured, and then Compound 9 was intrathecally or subcutaneously administered, and the mechanical pain threshold at different time points after administration were recorded.
# The experimental data were expressed as mean±standard error (Means±S.E.M.), and the data for differences between groups treated with different drug concentrations were analyzed by one-way ANOVA (Bonferroni test in one-way ANOVA) for statistics and analysis, **P<0.01, ***P<0.001 represents that there was a significant difference between the pain threshold value of the drug-treated group and that of the saline group.
# First, the maximum analgesic effect (MPE) was calculated, MPE (%)=100×[(pain threshold after administration−pain sensitivity value of the hind paw in surgical side)/(basic pain threshold−pain sensitivity value of the hind paw in surgical side)].
# [3] = tested on: gastrointestinal movement of male mice of Kunming strain; assay: Gastrointestinal movement in vivo (activated carbon suspension); design: species or system mouse
# Description: Male mice of Kunming strain, weighing 26±2 g. The commonly used toner detection method was used in the detection of astrointestinal movement in vivo. The specific experimental procedure was: before the gastrointestinal movement experiment, the mice were fasted for 16 hours (free drinking during fasting), then the drug was injected through spinal cord or subcutaneously, and after 15 minutes, the activated carbon suspension prepared in advance (a physiological saline suspension containing 5% of activated carbon and 10% gum arabic) was orally perfused into the stomach in a volume of 0.1 ml per 10 g of body weight. After 30 minutes from the perfusion of activated carbon suspension, the animals were sacrificed by cervical dislocation, and then the small intestine of the animal from the pylorus to the cecum was carefully taken out. The total lengths of the small intestine from the pylorus to the cecum and the furthest distance from which the activated carbon suspension moves were measured.
# Gastrointestinal movement test results were evaluated by a percentage of gastrointestinal movement, and the percentage of gastrointestinal movement per mouse was calculated by dividing the moving distance of the activated carbon suspension by the total length of the small intestine. The relevant data were expressed as mean of the percentage of gastrointestinal movement±standard error (Means±S.E.M.), the data for differences between groups treated with different drug concentrations were analyzed by one-way ANOVA (Dunnett test in one-way ANOVA) for statistics and analysis, ***P<0.001 represented that there was a significant difference between the percentage of gastrointestinal movement of the drug-treated group and that of the saline group.
# [4] = tested on: mice; assay: Naloxone withdrawal test; format: in vivo, mouse; conditions: s.c. at 8 hours intervals 20, 40, 60, 80, 100, 100, 100 mg/kg; naloxone 1 mg/kg; 30 minutes
# [5] = lateral ventricle (i.c.v.), listed as compound 9
# [6] = lateral ventricle, from ED50 values
smiles,measurement,setting,value
"C[C@@H](NC(=O)[C@@H](N)Cc1ccc(O)cc1)C(=O)NCC(=O)N(C)[C@@H](Cc1ccccc1)C(=O)NCC(=O)N1CCC[C@H]1C(=O)N[C@@H](CCC(N)=O)C(=O)N[C@@H](CCCNC(=N)N)C(=O)N[C@@H](Cc1ccccc1)C(N)=O [Compound 9, Tyr-D-Ala-Gly-NMe-Phe-Gly-Pro-Gln-Arg-Phe-NH2] (H-Y[dA]G[NMeF]GPQRF-NH2)",ED50 value (95% confidence interval) first phase pain,[1]; intraperitoneal (i.p.),8.855 (7.573 to 10.35) mg/kg
same,ED50 value (95% confidence interval) second phase pain,[1]; intraperitoneal (i.p.),10.92 (9.632 to 12.39) mg/kg
same,ED50 value (95% confidence interval) first phase pain,[1]; intrathecal (i.t.),37.69 (35.53 to 39.99) pmol
same,ED50 value (95% confidence interval) second phase pain,[1]; intrathecal (i.t.),55.04 (51.26 to 59.10) pmol
same,ED50 value (95% confidence interval) first phase pain,[1]; lateral ventricle (i.c.v.),18.8 pmol
same,ED50 value (95% confidence interval) second phase pain,[1]; lateral ventricle (i.c.v.),103.4 pmol
same,ED50 value (95% confidence interval) first phase pain,[1]; [5],18.80 (15.97 to 22.12) pmol
same,ED50 value (95% confidence interval) second phase pain,[1]; [5],103.4 (96.02 to 111.3) pmol
same,"analgesic effect relative to BN-9, first phase pain",[1]; [6],6.3 times
same,"analgesic effect relative to BN-9, second phase pain",[1]; [6],11.0 times
same,"analgesic ED50 value, thermal hyperalgesia",[2]; intrathecal,1.74 (1.38-2.20) pmol
same,"analgesic ED50 value, mechanical hyperalgesia",[2]; subcutaneous,3.51 (3.28-3.74) mg/kg
same,"analgesic ED50 value, thermal hyperalgesia",[2]; subcutaneous,3.12 (2.77-3.51) mg/kg
same,percentage of gastrointestinal movement,[3]; 10 mg/kg (compound 9 subcutaneous; morphine positive control),37.10%
same,dose with significant inhibitory effect on gastrointestinal movement,[3]; intrathecal injection,≥ 300 pmol
same,percentage of gastrointestinal movement,"[3]; intrathecal injection, 100 pmol",45.71%
same,percentage of gastrointestinal movement,"[3]; intrathecal injection, 300 pmol",31.40%
same,percentage of gastrointestinal movement,"[3]; intrathecal injection, 500 pmol",21.67%
same,percentage of gastrointestinal movement,"[3]; subcutaneous, 1 mg/kg",47.28%
same,percentage of gastrointestinal movement,"[3]; subcutaneous, 30 mg/kg",33.12%
same,percentage of gastrointestinal movement,"[3]; subcutaneous, 100 mg/kg",24.14%
same,average number of jumps after naloxone withdrawal,[4],11.63

# — patent US11167006B2 (Shanghai Tianci Life Science Development Co., Ltd., priority 2016, dated 2021)
